Publication PMC10495984, “Structural basis of IRGB10 oligomerization by GTP hydrolysis” (Frontiers in Immunology, 2023)

T1: IRGB10 (Mus musculus, UniProt U5NFV2)
T1 construct: recombinant from E. coli BL21(DE3), Ni-NTA purified, C-terminal LEH from plasmid kept; modelled residues 16-406
T1 sequence (U5NFV2 1-406): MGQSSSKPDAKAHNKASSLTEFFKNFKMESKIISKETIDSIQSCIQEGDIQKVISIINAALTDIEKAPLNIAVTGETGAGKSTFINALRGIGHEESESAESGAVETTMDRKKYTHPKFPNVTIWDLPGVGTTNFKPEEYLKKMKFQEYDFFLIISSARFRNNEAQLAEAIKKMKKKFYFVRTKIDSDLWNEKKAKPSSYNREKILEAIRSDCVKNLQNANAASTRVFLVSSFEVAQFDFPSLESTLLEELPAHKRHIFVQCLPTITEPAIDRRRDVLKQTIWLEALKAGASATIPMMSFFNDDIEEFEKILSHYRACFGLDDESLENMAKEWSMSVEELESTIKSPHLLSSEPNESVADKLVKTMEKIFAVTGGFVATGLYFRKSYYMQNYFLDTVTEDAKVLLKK


Assays:
IRGB10 = target: T1, IRGB10; assay: turbidity at […] nm, SEC and native PAGE of GTP-driven oligomerization; assay type: biochemical; conditions: nucleotide-free protein, MgCl2, 37 °C, pH 8.0; hydrolysis inferred from oligomerization
[1] = target: the molecule itself; assay: SEC-MALS; GDP-bound protein (endogenous E. coli GDP kept); Superdex 200 HR 10/30, 20 mM Tris-HCl pH 8.0, 150 mM NaCl

| Molecule | turbidity at 350 nm, SEC and native PAGE of GTP-driven oligomerization (IRGB10) | stoichiometry N [1] |
| --- | --- | --- |
| Nc1nc2c(ncn2[C@@H]2O[C@H](COP(=O)(O)OP(=O)(O)OP(=O)(O)O)[C@@H](O)[C@H]2O)c(=O)[nH]1 [GTP] | The results of these turbidity assays indicated that GTP hydrolysis caused the oligomerization of IRGB10. |  |
| Immunity-related GTPase B10 (IRGB10) (enzyme, mouse, IRGB10, immunity-related GTPase B10, member of the mouse IRG (p47 GTPase) family; the crystal model runs from residue 16 to residue 406 and is followed by LEH from the plasmid; nucleotide-free after a 1.5 M NaCl wash on the resin; GppNHp, GTP or GDP added afterwards; also called wildtype IRGB10; nucleotide-free IRGB10; source: E. coli BL21 (DE3), purified (Ni-NTA, SEC)) MGQSSSKPDAKAHNMASSLTEFFKNFKMESKIISKETIDSIQSCIQEGDIQKVISIINAALTDIEKAPLNIAVTGETGAGKSTFINALRGIGHEESESAESGAVETTKDRKKYTHPKFPNVTIWDLPGVGTTNFKPEEYLKKMKFQEYDFFLIISSARFRDNEAQLAEAIKKMKKKFYFVRTKIDSDLWNEKKAKPSSYNREKILEVIRSDCVKNLQNANAASTRVFLVSSFEVAQFDFPSLESTLLEELPAHKRHIFVQCLPTITEPAIDRRRDVLKQTIWLEALKAGASATIPMMSFFNDDIEEFEKILSHYRACFGLDDESLENMAKEWSMSVEELESTIKSPHLLSSEPNESVADKLVKTMEKIFAVTGGFVATGLYFRKSYYMQNYFLDTVTEDAKVLLKK |  | 2 |
